This note sets out measurements from patent US20070049593A1 (priority 2004, published 2007).

Counter-ions that a name gives are not always drawn. Bounds are passed on as bounds.

The experiment concerns the target T1, HCV polymerase (Hepatitis C virus genotype 1b, UniProt P26663).
T1 construct: a region encoding NS5B (J Virol 1991 March, 65(3), 1105-13, 544 amino acids after deletion of 47 amino acids on the C-terminal); 6xHis (C); made in house; host or cells: Escherichia coli
As to the kind of experiment: biochemical. Also noted: species or system HCV BK strain. An excerpt:
The evaluation of the HCV polymerase inhibitory activity of the compound of the present invention is explained in the following. This polymerase is an enzyme coded for by the non-structural protein region called NS5B on the genome RNA of HCV (EMBO J., 15:12-22, 1996).
Using, as a template, a cDNA clone corresponding to the full length genome RNA of HCV BK strain obtained from the blood of a patient with hepatitis C, a region encoding NS5B (J Virol 1991 March, 65(3), 1105-13, 544 amino acids after deletion of 47 amino acids on the C-terminal) was amplified by PCR. The objective gene was prepared by adding a 6 His tag {base pair encoding 6 continuous histidine (His)}to the 3′ end thereof and transformed to Escherichia coli. The Escherichia coli capable of producing the objective protein was cultured. The obtained cells were suspended in a buffer solution and crushed in a microfluidizer.
Using a synthetic primer designed based on the sequence of HCV genomic 3′ untranslated region, a DNA fragment (148 bp) containing polyU and 3′X sequence was entirely synthesized and cloned into plasmid pBluescript SK II(+) (Stratagene). The cDNA encoding full length NS5B, which was prepared in i) above, was digested with restriction enzyme KpnI to give a cDNA fragment containing the nucleotide sequence of from the restriction enzyme cleavage site to the termination codon. This cDNA fragment was inserted into the upstream of 3′ untranslated region of the DNA in pBluescript SK II(+) and ligated. The about 450 bp inserted DNA sequence was used as a template in the preparation of substrate RNA.
RNA was synthesized (37° C., 3 hr) by run-off method using this purified DNA as a template, a promoter of pBluescript SK II(+), MEGAscript RNA synthesis kit (Ambion) and T7 RNA polymerase. DNase I was added and the mixture was incubated for 1 hr. The template DNA was removed by decomposition to give a crude RNA product.
A test substance (compound of the present invention) and a reaction mixture (30 μl) having the following composition were reacted at 25° C. for 90 min.
10% Trichloroacetic acid at 4° C. and 1% sodium pyrophosphate solution (150 μl) were added to this reaction mixture to stop the reaction. The reaction mixture was left standing in ice for 15 min to insolubilize RNA. This RNA was trapped on a glass filter (Whatman GF/C and the like) upon filtration by suction. This filter was washed with a solution containing 1% trichloroacetic acid and 0.1% sodium pyrophosphate, washed with 90% ethanol and dried. A liquid scintillation cocktail (Packard) was added and the radioactivity of RNA synthesized by the enzyme reaction was measured on a liquid scintillation counter.
The HCV polymerase inhibitory activity (IC50) of the compound of the present invention was calculated from the values of radioactivity of the enzyme reaction with and without the test substance.
Reaction mixture: HCV polymerase (0.5 μg/ml) obtained in i), substrate RNA (5 μg/ml) obtained in ii), ATP (50 μM), GTP (50 μM), CTP ([…]), UTP (2 μM), [5,6-^3H]UTP (46 Ci/mmol (Amersham), 1 μCi) 20 mM Tris-HCl (pH 7.5), EDTA (1 mM), MgCl2 (5 mM), NaCl (50 mM), DTT (1 mM), BSA (0.01%)

T1 sequence (P26663 2420-2963): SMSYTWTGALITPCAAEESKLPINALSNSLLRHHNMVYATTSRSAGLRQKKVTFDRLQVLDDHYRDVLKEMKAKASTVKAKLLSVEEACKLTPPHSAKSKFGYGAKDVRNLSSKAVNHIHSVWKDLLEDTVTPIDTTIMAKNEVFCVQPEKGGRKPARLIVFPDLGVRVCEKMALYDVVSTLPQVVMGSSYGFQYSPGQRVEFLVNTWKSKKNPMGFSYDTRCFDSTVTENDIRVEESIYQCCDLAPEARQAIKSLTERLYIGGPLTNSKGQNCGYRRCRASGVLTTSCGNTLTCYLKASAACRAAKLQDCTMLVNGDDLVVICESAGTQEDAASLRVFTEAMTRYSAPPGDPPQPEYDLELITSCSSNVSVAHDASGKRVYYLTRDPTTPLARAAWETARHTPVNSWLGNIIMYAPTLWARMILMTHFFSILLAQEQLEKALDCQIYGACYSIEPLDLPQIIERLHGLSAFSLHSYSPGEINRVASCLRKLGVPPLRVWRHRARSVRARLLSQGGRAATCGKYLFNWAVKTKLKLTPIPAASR

As for `O=C(O)c1ccc2c(C3CCCCC3)c3n(c2c1)CCN(CCN1CCCC1)c1ccccc1-3` [Example 1-57, 13-cyclohexyl-5-[2-(pyrrolidin-1-yl)ethyl]-6,7-dihydro-5H-benzo[5,6][1,4]diazepino[7,1-a]indole-10-carboxylic acid dihydrochloride], the IC50 is below 0.1 µM. `O=C(O)c1ccc2c(C3CCCCC3)c3n(c2c1)CCN(CC(=O)N1CCOCC1)c1cc(Cl)ccc1-3` [Example 1-60, 3-chloro-13-cyclohexyl-5-[2-(morpholin-4-yl)-2-oxoethyl]-6,7-dihydro-5H-benzo[5,6][1,4]diazepino[7,1-a]indole-10-carboxylic acid monohydrochloride] showed an IC50 below 0.1 µM. The figure for `O=C(O)c1ccc2c(C3CCCCC3)c3n(c2c1)CCN(CCCC(=O)N1CCOCC1)c1ccccc1-3` [Example 1-61, 13-cyclohexyl-5-[4-(morpholin-4-yl)-4-oxobutyl]-6,7-dihydro-5H-benzo[5,6][1,4]diazepino[7,1-a]indole-10-carboxylic acid monohydrochloride] is below 0.1 µM; for `CCN1CCN(C(=O)CCCN2CCn3c(c(C4CCCCC4)c4ccc(C(=O)O)cc43)-c3ccccc32)CC1` [Example 1-62, 13-cyclohexyl-5-[4-(4-ethylpiperazin-1-yl)-4-oxobutyl]-6,7-dihydro-5H-benzo[5,6][1,4]diazepino[7,1-a]indole-10-carboxylic acid dihydrochloride] it is below 0.1 µM; for `Cc1ccc2c(c1)N(CC(=O)N1CCOCC1)CCn1c-2c(C2CCCCC2)c2ccc(C(=O)O)cc21` [Example 1-63, 13-cyclohexyl-3-methyl-5-[2-(morpholin-4-yl)-2-oxoethyl]-6,7-dihydro-5H-benzo[5,6][1,4]diazepino[7,1-a]indole-10-carboxylic acid monohydrochloride] it is below 0.1 µM. Compound `COc1ccc2c(c1)N(CC(=O)N1CCOCC1)CCn1c-2c(C2CCCCC2)c2ccc(C(=O)O)cc21` [Example 1-64, 13-cyclohexyl-3-methoxy-5-[2-(morpholin-4-yl)-2-oxoethyl]-6,7-dihydro-5H-benzo[5,6][1,4]diazepino[7,1-a]indole-10-carboxylic acid monohydrochloride] returned an IC50 below 0.1 µM. `COc1ccc2c(c1)N(CC(=O)N1CCCCC1)CCn1c-2c(C2CCCCC2)c2ccc(C(=O)O)cc21` [Example 1-65, 13-cyclohexyl-3-methoxy-5-[2-oxo-2-(piperidin-1-yl)ethyl]-6,7-dihydro-5H-benzo[5,6][1,4]diazepino[7,1-a]indole-10-carboxylic acid monohydrochloride]: the IC50 was below 0.1 µM. With `CCN1CCN(C(=O)CN2CCn3c(c(C4CCCCC4)c4ccc(C(=O)O)cc43)-c3ccc(OC)cc32)CC1` [Example 1-66, 13-cyclohexyl-5-[2-(4-ethylpiperazin-1-yl)-2-oxoethyl]-3-methoxy-6,7-dihydro-5H-benzo[5,6][1,4]diazepino[7,1-a]indole-10-carboxylic acid dihydrochloride], the IC50 is below 0.1 µM.

Regarding `COc1ccc2c(c1)N(CCN1CCOCC1)CCn1c-2c(C2CCCCC2)c2ccc(C(=O)O)cc21` [Example 1-67, 13-cyclohexyl-3-methoxy-5-[2-(morpholin-4-yl)ethyl]-6,7-dihydro-5H-benzo[5,6][1,4]diazepino[7,1-a]indole-10-carboxylic acid dihydrochloride], the IC50 was below 0.1 µM. The same measure for `Cc1ccc2c(c1)N(CCN1CCOCC1)CCn1c-2c(C2CCCCC2)c2ccc(C(=O)O)cc21` [Example 1-68, 13-cyclohexyl-3-methyl-5-[2-(morpholin-4-yl)ethyl]-6,7-dihydro-5H-benzo[5,6][1,4]diazepino[7,1-a]indole-10-carboxylic acid dihydrochloride]: below 0.1 µM; for `O=C(O)c1ccc2c(C3CCCCC3)c3n(c2c1)CCN(CCN1CCCOCC1)c1ccccc1-3` [Example 1-69, 13-cyclohexyl-5-[2-(1,4-oxazepan-4-yl)ethyl]-6,7-dihydro-5H-benzo[5,6][1,4]diazepino[7,1-a]indole-10-carboxylic acid dihydrochloride]: below 0.1 µM; for `CS(=O)(=O)N1CCN(C(=O)CN2CCn3c(c(C4CCCCC4)c4ccc(C(=O)O)cc43)-c3ccccc32)CC1` [Example 1-70, 13-cyclohexyl-5-[2-(4-methanesulfonylpiperazin-1-yl)-2-oxoethyl]-6,7-dihydro-5H-benzo[5,6][1,4]diazepino[7,1-a]indole-10-carboxylic acid monohydrochloride]: below 0.1 µM. The same measure for `CCC1CCN(C(=O)CN2CCn3c(c(C4CCCCC4)c4ccc(C(=O)O)cc43)-c3ccccc32)CC1` [Example 1-71, 13-cyclohexyl-5-[2-(4-ethylpiperidin-1-yl)-2-oxoethyl]-6,7-dihydro-5H-benzo[5,6][1,4]diazepino[7,1-a]indole-10-carboxylic acid monohydrochloride]: below 0.1 µM; for `CC1CCN(C(=O)CN2CCn3c(c(C4CCCCC4)c4ccc(C(=O)O)cc43)-c3ccccc32)CC1` [Example 1-72, 13-cyclohexyl-5-[2-(4-methylpiperidin-1-yl)-2-oxoethyl]-6,7-dihydro-5H-benzo[5,6][1,4]diazepino[7,1-a]indole-10-carboxylic acid monohydrochloride]: below 0.1 µM. The figure for `CCC1CCN(CCN2CCn3c(c(C4CCCCC4)c4ccc(C(=O)O)cc43)-c3ccccc32)CC1` [Example 1-73, 13-cyclohexyl-5-[2-(4-ethylpiperidin-1-yl)ethyl]-6,7-dihydro-5H-benzo[5,6][1,4]diazepino[7,1-a]indole-10-carboxylic acid dihydrochloride] is below 0.1 µM; for `COc1ccc2c(c1)N(CCN1CCCCC1)CCn1c-2c(C2CCCCC2)c2ccc(C(=O)O)cc21` [Example 1-74, 13-cyclohexyl-3-methoxy-5-[2-(piperidin-1-yl)ethyl]-6,7-dihydro-5H-benzo[5,6][1,4]diazepino[7,1-a]indole-10-carboxylic acid dihydrochloride] it is below 0.1 µM; for `CC1CCN(CCN2CCn3c(c(C4CCCCC4)c4ccc(C(=O)O)cc43)-c3ccccc32)CC1` [Example 1-75, 13-cyclohexyl-5-[2-(4-methylpiperidin-1-yl)ethyl]-6,7-dihydro-5H-benzo[5,6][1,4]diazepino[7,1-a]indole-10-carboxylic acid dihydrochloride] it is below 0.1 µM. Compound `CCN1CCN(C(=O)CN2CCn3c(c(C4CCCCC4)c4ccc(C(=O)O)cc43)-c3ccc(Cl)cc32)CC1` [Example 1-76, 3-chloro-13-cyclohexyl-5-[2-(4-ethylpiperazin-1-yl)-2-oxoethyl]-6,7-dihydro-5H-benzo[5,6][1,4]diazepino[7,1-a]indole-10-carboxylic acid dihydrochloride] yielded an IC50 below 0.1 µM.

Regarding `O=C(O)c1ccc2c(C3CCCCC3)c3n(c2c1)CCN(CC(=O)N1CCCCC1)c1cc(Cl)ccc1-3` [Example 1-77, 3-chloro-13-cyclohexyl-5-[2-oxo-2-(piperidin-1-yl)ethyl]-6,7-dihydro-5H-benzo[5,6][1,4]diazepino[7,1-a]indole-10-carboxylic acid monohydrochloride], the IC50 is below 0.1 µM.

One may read the IC50 as the concentration that gives 50% inhibition. Read a high IC50 as lower potency.
